Data reported in ChEMBL document CHEMBL1649082, “Trends in kinase selectivity: insights for target class-focused library screening” (J Med Chem, 2011).

Key:
Parameters in all cases: scale not given: the % may be the effect or the level left
[1] = Inhibition of CDC2L2 isoform 1 assessed as activity at 1 uM relative to control
[2] = Inhibition of CDC2L1 isoform 4 assessed as activity at 1 uM relative to control
[3] = biological target: T1, Inhibitor of nuclear factor kappa-B kinase subunit alpha (Homo sapiens) (UniProt O15111); experiment: Inhibition of IKKalpha assessed as activity at 1 uM relative to control
T1 sequence (whole entry): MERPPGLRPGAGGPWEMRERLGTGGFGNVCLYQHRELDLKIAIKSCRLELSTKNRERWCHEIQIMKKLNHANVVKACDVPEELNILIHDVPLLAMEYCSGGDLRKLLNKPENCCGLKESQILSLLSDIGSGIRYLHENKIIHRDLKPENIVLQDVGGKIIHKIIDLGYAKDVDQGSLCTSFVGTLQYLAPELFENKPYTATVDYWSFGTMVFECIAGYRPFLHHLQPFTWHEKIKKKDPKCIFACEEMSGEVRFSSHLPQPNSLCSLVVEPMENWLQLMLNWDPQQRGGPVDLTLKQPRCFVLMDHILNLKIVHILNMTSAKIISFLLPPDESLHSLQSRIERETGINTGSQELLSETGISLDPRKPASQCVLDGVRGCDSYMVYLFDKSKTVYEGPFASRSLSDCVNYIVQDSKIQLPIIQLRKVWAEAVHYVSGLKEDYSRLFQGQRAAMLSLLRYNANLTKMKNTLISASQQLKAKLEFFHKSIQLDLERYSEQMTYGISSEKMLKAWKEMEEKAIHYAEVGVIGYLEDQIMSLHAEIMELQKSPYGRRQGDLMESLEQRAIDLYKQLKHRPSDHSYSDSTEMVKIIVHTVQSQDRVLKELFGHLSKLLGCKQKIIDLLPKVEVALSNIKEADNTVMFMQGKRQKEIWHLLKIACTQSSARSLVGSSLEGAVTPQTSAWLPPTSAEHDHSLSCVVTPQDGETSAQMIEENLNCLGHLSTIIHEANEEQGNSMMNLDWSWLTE

[4] = biological target: Cyclin-dependent kinase 7 (Homo sapiens) (UniProt P50613); experiment: Inhibition of CDK7 assessed as activity at 1 uM relative to control
Cyclin-dependent kinase 7 (Homo sapiens), sequence (P50613 whole entry): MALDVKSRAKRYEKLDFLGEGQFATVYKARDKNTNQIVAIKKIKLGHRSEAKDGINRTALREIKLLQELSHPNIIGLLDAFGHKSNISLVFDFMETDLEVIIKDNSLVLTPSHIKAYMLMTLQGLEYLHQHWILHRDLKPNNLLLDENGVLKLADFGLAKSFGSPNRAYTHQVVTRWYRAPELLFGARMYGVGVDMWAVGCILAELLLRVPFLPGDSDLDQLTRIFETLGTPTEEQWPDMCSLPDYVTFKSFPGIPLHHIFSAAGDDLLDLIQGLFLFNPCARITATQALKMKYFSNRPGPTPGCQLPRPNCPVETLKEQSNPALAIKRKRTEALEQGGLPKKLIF

Activity [1] | Activity [2] | Activity [3] | Activity [4] | SMILES
68% | 42% | 15% | 58% | Cc1cccc(-c2cc3nc(NCCN)c4ncc(C)n4c3s2)c1
6.3% | 2.1% | 4.6% | 0.5% | Cc1cnc2c(NCCN)nc3cc(-c4cccc(CO)c4)sc3n12
